These results are taken from US20210238187A1, “AZIRIDINE CONTAINING EPOTHILONE ANALOGS, METHODS OF SYNTHESIS, METHODS OF TREATMENT, AND DRUG CONJUGATES” (WILLIAM MARSH RICE UNIVERSITY, priority 2017, published 2021).

The term EC50 denotes the concentration at which the effect is half-maximal. A lower EC50 goes with a more potent agent. By IC50 is commonly meant the concentration needed to halve the response being measured.

The structures appear in SMILES notation.

Test [1] deals with Tubulin. The test is described as follows: Tubulin assembly induction. As to conditions: […]. Type of test: biochemical.
The test system of test [2] is MCF-7. The experiment in a line: Cytotoxicity (GI50) assay, MCF-7. It is filed as cell-based, human. As to conditions: Homo sapiens, MCF7, read-out: Cancer cell lines GI50, MCF-7.
Test [3] has as its system OVCAR-8. The test is described as follows: Cytotoxicity (GI50) assay, OVCAR-8. It is filed as cell-based, human. As to conditions: Homo sapiens, OVCAR-8, read-out: Cancer cell lines GI50, OVCAR-8.
Test [4] concerns NCI/ADR-RES. The test is described as follows: Cytotoxicity (GI50) assay, NCI/ADR-RES. As to conditions: Homo sapiens, NCI/ADR-RES, read-out: Cancer cell lines GI50, NCI/ADR-RES. Type of test: cell-based, human.
Test [5] relates to MDA-MB-435. The experiment in a line: Cytotoxicity (GI50) assay, MDA-MB-435. As to conditions: Homo sapiens, MDA-MB-435, read-out: Cancer cell lines GI50, MDA-MB-435. Type of test: cell-based, human.
The subject of test [6] is SNB-75. The test is described as follows: Cytotoxicity (GI50) assay, SNB-75. Type of test: cell-based, human. As to conditions: Homo sapiens, SNB-75, read-out: Cancer cell lines GI50, SNB-75.
Test [7] deals with MES SA. The test is described as follows: Cytotoxicity assay (CellTiter-Glo), MES SA. As to conditions: Homo sapiens, MES-SA, 72 h, read-out: Cancer cell lines IC50, MES SA. It is filed as cell-based, human. (Cellular ATP, detected with luciferase, serves as a proxy for viable cell number.)
The test system of test [8] is MES SA DX. The test is described as follows: Cytotoxicity assay (CellTiter-Glo), MES SA DX. As to conditions: Homo sapiens, MES-SA, 72 h, read-out: Cancer cell lines IC50, MES SA DX. Type of test: cell-based, human.
Test [9] has as its system HEK 293T. The experiment in a line: Cytotoxicity assay (CellTiter-Glo), HEK 293T. Type of test: cell-based. As to conditions: Homo sapiens, 72 h, read-out: Cancer cell lines IC50, HEK 293T.

In test [1], `CC(=O)OCCN1[C@H]2C[C@@H](/C(C)=C/c3ccn(Cn4cccn4)n3)OC(=O)C[C@H](O)C(C)(C)C(=O)[C@H](C)[C@@H](O)[C@@H](C)CCC[C@]21C` (stereo partly drawn) [compound 26, 2-[(1S,3S,7S,10R,11S,12S,16R)-7,11-Dihydroxy-8,8,10,12,16-pentamethyl-5,9-dioxo-3-{(1E)-1-[1-(1H-pyrazol-1-ylmethyl)-1H-pyrazol-3-yl]prop-1-en-2-yl}-4-oxa-17-azabicyclo[14.1.0]heptadec-17-yl]ethyl acetate] showed an EC50 of 40 µM. The GI50 in [2] turned out to be 0.038 µM; in test [3], 0.038 µM; in test [4] it was 2.7 µM; in test [5] it was 0.0055 µM; in [6], 0.05 µM. Further, the IC50 in test [7] is 0.0059 µM; in [8] it was above 0.4 µM; in test [9] it was 0.00172 µM.

`C/C(=C\c1cnon1)[C@@H]1C[C@@H]2N(CCO)[C@]2(C)CCC[C@H](C)[C@H](O)[C@@H](C)C(=O)C(C)(C)[C@@H](O)CC(=O)O1` (stereo partly drawn) [compound 27, (1S,3S,7S,10R,11S,12S,16R)-7,11-Dihydroxy-17-(2-hydroxyethyl)-8,8,10,12,16-pentamethyl-3-[(1E)-1-(1,2,5-oxadiazol-3-yl)prop-1-en-2-yl]-4-oxa-17-azabicyclo[14.1.0]heptadecane-5,9-dione]: the EC50 in [1] is above 60 µM. Besides, the GI50 is 0.14 µM in test [2]; 0.58 µM in test [3]; above 5 µM in [4]; 0.12 µM in [5]; 0.45 µM in test [6]. Moreover, the IC50 in test [7] is 0.0389 µM; in test [8], at least 2.5 µM; in test [9], 0.0117 µM.

Regarding `C/C(=C\c1cnsn1)[C@@H]1C[C@@H]2N(CCO)[C@]2(C)CCC[C@H](C)[C@H](O)[C@@H](C)C(=O)C(C)(C)[C@@H](O)CC(=O)O1` (stereo partly drawn) [compound 28, (1S,3S,7S,10R,11S,12S,16R)-7,11-Dihydroxy-17-(2-hydroxyethyl)-8,8,10,12,16-pentamethyl-3-[(1E)-1-(1,2,5-thiadiazol-3-yl)prop-1-en-2-yl]-4-oxa-17-azabicyclo[14.1.0]heptadecane-5,9-dione], in [1], the EC50 worked out at 39 µM. Further, the GI50 in test [2] came to 0.0045 µM; in [3], 0.009 µM; in test [4] it was 0.68 µM; in [5] it was 0.003 µM; in [6] it was 0.008 µM. For the same molecule, the IC50 in [7] was found to be 0.00458 µM; in test [8] it was 0.264 µM; in [9] it was 0.00193 µM.

Molecule `C/C(=C\c1cc(C)no1)[C@@H]1C[C@@H]2N(CCO)[C@]2(C)CCC[C@H](C)[C@H](O)[C@@H](C)C(=O)C(C)(C)[C@@H](O)CC(=O)O1` (stereo partly drawn) [compound 29, (1S,3S,7S,10R,11S,12S,16R)-7,11-Dihydroxy-17-(2-hydroxyethyl)-8,8,10,12,16-pentamethyl-3-[(1E)-1-(3-methyl-1,2-oxazol-5-yl)prop-1-en-2-yl]-4-oxa-17-azabicyclo[14.1.0]heptadecane-5,9-dione] registered an EC50 in test [1] of 45 µM. Further, the GI50 in [2] was 0.0095 µM; in test [3], 0.027 µM; in test [4], 0.39 µM; in test [5], 0.017 µM; in [6], 0.034 µM. Also, the IC50 in test [7] is 0.00654 µM; in test [8], above 0.07 µM; in [9], 0.00167 µM.

Consider `C/C(=C\c1snnc1C)[C@@H]1C[C@@H]2N(CCO)[C@]2(C)CCC[C@H](C)[C@H](O)[C@@H](C)C(=O)C(C)(C)[C@@H](O)CC(=O)O1` (stereo partly drawn) [compound 30, (1S,3S,7S,10R,11S,12S,16R)-7,11-Dihydroxy-17-(2-hydroxyethyl)-8,8,10,12,16-pentamethyl-3-[(1E)-1-(4-methyl-1,2,3-thiadiazol-5-yl)prop-1-en-2-yl]-4-oxa-17-azabicyclo[14.1.0]heptadecane-5,9-dione], for which, in test [1], the EC50 is above 60 µM. The GI50 is 0.058 µM in test [2]; 0.21 µM in test [3]; 2.8 µM in [4]; 0.048 µM in [5]; 0.1 µM in [6]. Besides, the values for the IC50 in test [7], in test [8] and in test [9] were 0.0378 µM, above 2.5 µM and 0.064 µM, respectively.

`C/C(=C\c1cc(-c2ccc(F)cc2)on1)[C@@H]1C[C@@H]2N(CCO)[C@]2(C)CCC[C@H](C)[C@H](O)[C@@H](C)C(=O)C(C)(C)[C@@H](O)CC(=O)O1` (stereo partly drawn) [compound 31, (1S,3S,7S,10R,11S,12S,16R)-3-{(1E)-1-[5-(4-Fluorophenyl)-1,2-oxazol-3-yl]prop-1-en-2-yl}-7,11-dihydroxy-17-(2-hydroxyethyl)-8,8,10,12,16-pentamethyl-4-oxa-17-azabicyclo[14.1.0]heptadecane-5,9-dione] yielded an EC50 in [1] of 19 µM. Also, the GI50 came out at 0.013 µM in test [2]; 0.07 µM in test [3]; 0.05 µM in test [4]; 0.011 µM in test [5]; 0.065 µM in test [6]. Besides, the IC50 in test [7] was determined as 0.00141 µM; in test [8], 0.0171 µM; in [9], 0.00032 µM.

As to `C/C(=C\c1csc(-c2nc(C)cs2)n1)[C@@H]1C[C@@H]2N[C@]2(C)CCC[C@H](C)[C@H](O)[C@@H](C)C(=O)C(C)(C)[C@@H](O)CC(=O)O1` [compound 32, (1S,3S,7S,10R,11S,12S,16R)-7,11-Dihydroxy-8,8,10,12,16-pentamethyl-3-[(1E)-1-(4′-methyl-2,2′-bi-1,3-thiazol-4-yl)prop-1-en-2-yl]-4-oxa-17-azabicyclo[14.1.0]heptadecane-5,9-dione], a half-maximal effect in test [1] (EC50) was put at 43 µM. Further, the GI50 in [2] stood at 0.025 µM; in test [3], 0.058 µM; in test [4], 0.17 µM; in test [5], 0.011 µM; in test [6], 0.068 µM. The IC50 in test [7] is 0.0258 µM; in test [8], above 0.4 µM; in test [9] it was 0.0632 µM.

With `C/C(=C\c1ccn(Cn2cccn2)n1)[C@@H]1C[C@@H]2N[C@]2(C)CCC[C@H](C)[C@H](O)[C@@H](C)C(=O)C(C)(C)[C@@H](O)CC(=O)O1` [compound 33, (1S,3S,7S,10R,11S,12S,16R)-7,11-Dihydroxy-8,8,10,12,16-pentamethyl-3-{(1E)-1-[1-(1H-pyrazol-1-ylmethyl)-1H-pyrazol-3-yl]prop-1-en-2-yl}-4-oxa-17-azabicyclo[14.1.0]heptadecane-5,9-dione], the EC50 in test [1] is above 60 µM. The GI50 in [2] is 0.14 µM; in test [3], 1.1 µM; in test [4], above 5 µM; in test [5], 0.16 µM; in [6], 0.45 µM. The IC50 in test [7] is 0.107 µM; in test [8], above 2.5 µM; in test [9] it was 0.175 µM.

In test [1], `CSc1nc(/C=C(\C)[C@@H]2C[C@@H]3N(CCS)[C@]3(C)CCC[C@H](C)[C@H](O)[C@@H](C)C(=O)C(C)(C)[C@@H](O)CC(=O)O2)cs1` (stereo partly drawn) [compound 35, (1S,3S,7S,10R,11S,12S,16R)-7,11-Dihydroxy-8,8,10,12,16-pentamethyl-3-{(1E)-1-[2-(methyl-sulfanyl)-1,3-thiazol-4-yl]prop-1-en-2-yl}-17-(2-sulfanylethyl)-4-oxa-17-azabicyclo[14.1.0]-heptadecane-5,9-dione] came in with an EC50 above 60 µM. Further, the GI50 in test [2] amounted to 0.039 µM; in test [3] it was 0.019 µM; in [4], 0.03 µM; in test [5], 0.0055 µM; in test [6], 0.032 µM. Moreover, the figures for the IC50 in test [7], in test [8] and in test [9] were 0.00148 µM, 0.017 µM and 0.00034 µM, respectively.
